Holding throughout (assay): NCI-60 cell line screen, 48 h
In assay [1] the test system is A498 renal.
In assay [2] the test system is HOP-62 NSCLC.
Assay [3] relates to HOP-92 NSCLC.
Assay [4] concerns HT29 colon.
Assay [5] deals with MCF7 breast.
The subject of assay [6] is SF-295 CNS.
In assay [7] the test system is SF-539 CNS.
Assay [8] deals with SK-MEL-5 melanoma.
The test system of assay [9] is SK-OV-3 ovarian.
For assay [10], the system named is EKVX NSCLC.

Molecules are shown by their SMILES.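 In this assay, cells in 96-well plates receive the compound at five concentrations for 48 hours. Endpoints are linearly interpolated between the surrounding concentrations. TGI: total growth inhibition.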

Regarding `CNc1ncnc2c1nc(NC1CCCC1)n2C1OC(CO)C(O)C1O` (stereo not drawn), the TGI in [1], in [2], in assay [3], in assay [4], in [5] and in assay [6] was more than 100 µM in each case. For the same compound, the TGI in [7], in assay [8] and in assay [9] was more than 100 µM in each case.

With `O=C1CSC(c2ccc(Cl)cc2Cl)N1c1ccc(Oc2ccc(Cl)cc2)c(Cl)c1` (stereo not drawn), the TGI was 74 µM in assay [10]; 59.8 µM in assay [2]; 49.4 µM in assay [3]; 30.6 µM in assay [4]; more than 100 µM in [5]; 50.9 µM in assay [6]. The values for the TGI in [7], in assay [8] and in assay [9] were 86.7 µM, 43.6 µM and 85.6 µM, respectively.

`O=C(Nc1ccc(S(=O)(=O)/N=c2\ncccn2C(=O)C(C(F)(F)F)C(F)(F)F)cc1)C(C(F)(F)F)C(F)(F)F`: the TGI in assay [1], in assay [10], in assay [2], in assay [4], in assay [5] and in [6] was more than 100 µM each time. The TGI in [7], in assay [8] and in assay [9] was more than 100 µM in each case.

`CC1OC2OC3C(OCC(O)C3O)OC(=O)[C@]34CCC(C)(C)CC3C3=CCC5[C@@]6(C)C[C@H](O)[C@H](OC7OC(CO)C(O)C(O)C7OC7OCC(OC(=O)CC(C)(O)CC(=O)OC1C(O)C2O)C(O)C7O)[C@@](C)(CO)C6CC[C@@]5(C)[C@]3(C)CC4` (stereo partly drawn): the TGI in [2] was found to be 6.8 µM; in [3], 6.03 µM; in [4], 10.4 µM; in assay [5] it was 26.4 µM; in assay [6], 12.4 µM; in assay [7], 26 µM. Further, the TGI in assay [8] was determined as 16.3 µM; in assay [9], 10.4 µM.

In the case of `Clc1ccc(C[P+](c2ccccc2)(c2ccccc2)c2ccccc2)cc1Cl`, the TGI in assay [1] was determined as 27 µM; in assay [2], 21.2 µM; in assay [3], 6.02 µM; in assay [4], 11.9 µM; in assay [6], 22.2 µM; in assay [7], 14.5 µM. Also, the TGI in assay [8] came to 2.78 µM; in assay [9] it was 20.8 µM.

Regarding `NC(Cc1ccc2nc3c4ccccc4c(=O)cc-3oc2c1)C(=O)O` (stereo not drawn), the TGI was more than 100 µM in [10]; more than 100 µM in [2]; more than 100 µM in [3]; more than 100 µM in assay [4]; 41.4 µM in [5]; more than 100 µM in assay [6]. In addition, the figures for the TGI in assay [7], in assay [8] and in [9] were more than 100 µM, 34.6 µM and more than 100 µM, respectively.

As for `CN(CCNC(=O)c1c[nH]c2c1Cc1ccccc1-2)CCNC(=O)c1c[nH]c2c1Cc1ccccc1-2`, the TGI in [10] was more than 100 µM; in assay [2], more than 100 µM; in assay [3], more than 100 µM; in [4], more than 100 µM; in [5], 86 µM; in assay [6] it was more than 100 µM. In addition, the results for the TGI in [7] and in assay [8] were 49.2 µM and 71.4 µM, respectively.

On to `Cc1cc(S(=O)(=O)Nc2n[nH]c(N)n2)c(Cl)cc1Cl`, for which the TGI in assay [1], in assay [10], in assay [2], in [4], in assay [6] and in assay [7] was more than 10 µM throughout. The TGI in assay [8] and in assay [9] was more than 10 µM throughout.

Turning to `CCOC(=O)C1(C#N)CC1`, the TGI in assay [10], in assay [2], in [4], in assay [5], in assay [6] and in [7] was more than 100 µM throughout. In addition, the TGI in [8] and in assay [9] was more than 100 µM each time.

Take `NC(=S)N1N=C2c3ccccc3CC[C@H]2[C@@H]1c1ccc(Cl)cc1`: the TGI in assay [1] is more than 100 µM; in assay [10], more than 100 µM; in [2] it was more than 100 µM; in assay [3], 58.2 µM; in assay [4] it was more than 100 µM; in assay [6], more than 100 µM. Besides, the TGI in assay [7] and in assay [9] was more than 100 µM throughout.

In the case of `C=C=CC(NC(=O)c1ccccc1)(C(=O)O)C(F)(F)F` (stereo not drawn), the TGI in assay [1], in assay [10], in assay [3], in assay [4], in assay [6] and in [7] was more than 100 µM in each case. In [8], this compound gave a TGI of more than 100 µM.

For `CC(=O)OC1[C@H](OC(C)=O)C2=C(C)[C@@H](OC(C)=O)C[C@@]2(C(C)(C)O)[C@@H](OC(C)=O)[C@H]2[C@@]1(C)[C@@H](OC(C)=O)CC(OC(C)=O)[C@]21CO1` (stereo partly drawn), the TGI in assay [10], in [2], in assay [4], in assay [5], in assay [6] and in assay [7] was more than 100 µM in each case. Further, the TGI in assay [8] and in [9] was more than 100 µM throughout.

Regarding `COc1cc2c(/C=C3/C(=O)Nc4ccc(Cl)cc43)c(Cl)[nH]c2cc1C`, the TGI in [1] is 22.9 µM; in [2], 13.7 µM; in assay [3], 24.2 µM; in assay [4], 7.54 µM; in assay [5], 34.9 µM; in [6], 10.5 µM. Further, the TGI amounted to 0.638 µM in assay [7], 10.4 µM in [8] and 10.6 µM in assay [9].

For `Cn1cc(S(=O)(=O)NC(=O)Nc2ccc(Cl)cc2)c(=O)c2ccc(F)cc21`, the TGI in assay [1], in assay [10], in assay [2], in assay [3], in [4] and in assay [6] was more than 100 µM in each case. The TGI in [7], in [8] and in [9] was more than 100 µM throughout.

With `C[C@@H]1CC(=O)C[C@@H]2CC[C@H]3[C@@H]4CC[C@H](OC(=O)c5cccc6cc7ccccc7nc56)[C@H]4CC[C@@H]3[C@H]21`, the TGI came to 34.7 µM in assay [10]; 52.3 µM in assay [2]; 48.1 µM in [3]; 29.3 µM in assay [4]; 77.6 µM in assay [6]; 38.6 µM in [7]. Also, the values for the TGI in [8] and in assay [9] were 28.3 µM and 66.7 µM, respectively.

As for `C#CCN(Cc1ccc2nc(-c3ccccc3)c(N)nc2c1)c1cc(OC)c(OC)c(OC)c1`, the TGI in [10] was more than 100 µM; in [2], more than 100 µM; in [4], 59 µM; in [6], 66 µM; in [7], more than 100 µM; in assay [8], 25.7 µM.

`C(=Nc1ccc(-c2nc3ccccc3s2)cc1)c1ccc[nH]1`: the TGI in assay [1] worked out at 36.5 µM; in assay [10] it was 45.4 µM; in [2], 27.6 µM; in assay [3] it was 40.1 µM; in [4], 38.8 µM; in [6] it was 27.9 µM. For the same compound, the TGI was found to be 37.3 µM in [7], 30.7 µM in assay [8] and 51.6 µM in [9].

For `O=c1[nH]c(=O)n(COCc2ccccc2)cc1Nc1ccc(Br)cc1`, the TGI is more than 100 µM in assay [1]; more than 100 µM in assay [10]; 88.7 µM in [2]; more than 100 µM in assay [3]; more than 100 µM in assay [4]; more than 100 µM in assay [5]. In addition, the TGI in assay [6] and in [8] was more than 100 µM each time.

`C[C@]12CC(c3ccccc3O1)C(C(=O)Nc1nc(C34CC5CC(CC(C5)C3)C4)cs1)C(=O)N2` (stereo partly drawn): the TGI in assay [1], in assay [10], in [2], in assay [3], in assay [4] and in [5] was more than 100 µM in each case. Moreover, the TGI in assay [8] and in assay [9] was more than 100 µM throughout.

Consider `O=C(/C=C(\C(=O)c1cccs1)c1cccs1)c1ccc(C(=O)/C=C(\C(=O)c2cccs2)c2cccs2)cc1`, for which the TGI in assay [10], in assay [2], in [4], in [5], in [6] and in assay [7] was more than 100 µM throughout. For the same compound, the TGI in assay [8] and in assay [9] was more than 100 µM each time.

Consider `COc1cc2c(cc1OC)C(=O)/C(=C/c1cc(C)cc(C)c1)C2`, for which the TGI in [1] was 48 µM; in assay [10], more than 100 µM; in [2], more than 61.2 µM; in [3], more than 100 µM; in assay [4], 0.835 µM; in assay [5] it was more than 31.9 µM. The values for the TGI in assay [8] and in assay [9] were 0.932 µM and more than 32.9 µM, respectively.

As for `N/C1=C/C(=O)NC(=O)c2c(c3ccccc3oc2=O)C1`, the TGI in [1], in assay [10], in assay [2], in assay [3] and in assay [4] was more than 100 µM throughout.

For `COc1ccc(C2C(=O)c3c(OC)cc(OC)cc3OC2c2cccnc2)cc1` (stereo not drawn), the TGI in [1], in assay [10], in assay [2], in [4], in [5] and in assay [6] was more than 100 µM each time. The TGI in [7], in [8] and in [9] was more than 100 µM each time.

On to `C[C@H](CCC1SC1(C)C)C1CCC2(C)C3=C(CC[C@]12C)[C@@]1(C)CC[C@H](O)C(C)(C)C1CC3` (stereo partly drawn), for which the TGI in [1], in assay [10], in assay [2], in [3], in [4] and in [6] was more than 100 µM each time. Further, the TGI in assay [8] and in [9] was more than 100 µM each time.

`c1ccc2c(c1)cc1n2CCc2c-1[nH]c1ccccc21`: the TGI in assay [10], in [2], in [3], in assay [4], in [5] and in assay [6] was more than 10 µM each time. Further, the TGI in assay [7], in assay [8] and in assay [9] was more than 10 µM throughout.

Consider `O=C(O)c1nc2ccc(C(F)(F)F)cc2nc1Nc1ccc(F)cc1`, for which the TGI in assay [1] was 37.6 µM; in [10] it was 73.9 µM; in assay [2], 34.7 µM; in assay [4], more than 100 µM; in assay [5], 61.5 µM; in assay [6], 37.7 µM. In addition, the TGI in assay [8] was more than 100 µM.

On to `CCn1c2ccccc2c2c(-c3ccccc3)cc3c(c21)C(=O)N(c1ccccc1)C3=O`, for which the TGI is more than 100 µM in assay [1]; more than 100 µM in assay [10]; 90.5 µM in assay [3]; more than 100 µM in assay [6]; more than 100 µM in [7]; more than 100 µM in assay [8]. Further, the TGI in assay [9] was more than 100 µM.

For `Cc1nc2cc(Nc3ccccc3C(=O)O)ccc2s1`, the TGI in [1], in assay [2], in assay [3], in assay [4], in [6] and in [7] was more than 100 µM throughout. For the same compound, the TGI in [8] and in assay [9] was more than 100 µM throughout.

As for `C/C(N=NS(=O)(=O)c1ccc([N+](=O)[O-])cc1)=C1\C=CC=CN1O`, the TGI in assay [1], in assay [10], in assay [2], in [3], in [4] and in assay [6] was more than 100 µM throughout. Further, the TGI in assay [7], in assay [8] and in assay [9] was more than 100 µM in each case.

For `NC(=O)CC(N=Cc1nc(-c2ccccc2)oc1O)C(=O)O` (stereo not drawn), the TGI in assay [1], in [10], in assay [2], in [3], in assay [4] and in assay [6] was more than 100 µM each time. The TGI in assay [7], in [8] and in assay [9] was more than 100 µM each time.

For the origin of these results see PubChem BioAssay (NCI).
